For experiment [1], the system named is isolated rat adipocytes. The experiment can be described thus: Glucose transport (2-deoxyglucose uptake) in isolated rat adipocytes. The note with it: isolated rat adipocytes; for stimulation of glucose transport in the presence of semicarbazide: 1 mM semicarbazide; for stimulation of glucose transport (2-DG uptake): 45 min incubation. The format is cell-based. The method, then:
In order to determine whether salts formed by vanadate and benzylamine could produce an insulin mimetic effect, the effect of increasing concentrations of hexaquis(benzylammonium) decavanadate on glucose transport activity in isolated rat adipocytes was tested. […] In similar assays, the activity of hexaquis(benzylammonium) decavanadate, pentaquis(benzylammonium) decavanadate and tetraquis(benzylammonium) decavanadate on glucose transport activity in isolated rat adipocytes were analyzed.
To determine the possible insulin mimetic effect of certain vanadium arylalkylamines, the capacity of these compounds to enhance glucose transport in isolated rat adipocytes was tested. Adipose cells from Wistar rats were incubated for 45 minutes in basal conditions (Basal) or in the presence of 100 nM insulin (Ins), and different concentrations of. hexaquis(benzylammonium) decavanadate (B6V10) in the absence or in the presence of 1 mM semicarbazide (SCZ). Subsequently, 2-DG transport was measured over a 5 min. interval.
The effects of the three tested compounds (B6V10, B5V10 and B4V10) were compared. Adipose cells from Wistar rats were incubated for 45 minutes in basal conditions (Basal) or in the presence of 100 nM insulin (Ins), and different concentrations of. decavanadate (V10), hexaquis(benzylammonium) decavanadate (B6V10), pentaquis(benzylammonium) decavanadate (B5V10) or tetraquis(benzylammonium) decavanadate (B4V10) in the absence or in the presence of 1 mM semicarbazide (SCZ). 2-DG transport was measured over 5 min. intervals. […]
The effects of incubation with semicarbazide or phosphatidylinositol 3-kinase inhibitors were also investigated. Adipose cells were incubated with B6V10 (25 μM, 45 min) in the absence or presence of wortmannin (2 μM, 45 min), LY294002 (10 μM, 45 min) or semicarbazide (1 mM, 45 min) and thereafter 2-deoxyglucose uptake was determined during 5 min.

The target in experiment [2] is T1, Human SSAO (Homo sapiens, UniProt Q16853).
T1 sequence (Q16853 1-763): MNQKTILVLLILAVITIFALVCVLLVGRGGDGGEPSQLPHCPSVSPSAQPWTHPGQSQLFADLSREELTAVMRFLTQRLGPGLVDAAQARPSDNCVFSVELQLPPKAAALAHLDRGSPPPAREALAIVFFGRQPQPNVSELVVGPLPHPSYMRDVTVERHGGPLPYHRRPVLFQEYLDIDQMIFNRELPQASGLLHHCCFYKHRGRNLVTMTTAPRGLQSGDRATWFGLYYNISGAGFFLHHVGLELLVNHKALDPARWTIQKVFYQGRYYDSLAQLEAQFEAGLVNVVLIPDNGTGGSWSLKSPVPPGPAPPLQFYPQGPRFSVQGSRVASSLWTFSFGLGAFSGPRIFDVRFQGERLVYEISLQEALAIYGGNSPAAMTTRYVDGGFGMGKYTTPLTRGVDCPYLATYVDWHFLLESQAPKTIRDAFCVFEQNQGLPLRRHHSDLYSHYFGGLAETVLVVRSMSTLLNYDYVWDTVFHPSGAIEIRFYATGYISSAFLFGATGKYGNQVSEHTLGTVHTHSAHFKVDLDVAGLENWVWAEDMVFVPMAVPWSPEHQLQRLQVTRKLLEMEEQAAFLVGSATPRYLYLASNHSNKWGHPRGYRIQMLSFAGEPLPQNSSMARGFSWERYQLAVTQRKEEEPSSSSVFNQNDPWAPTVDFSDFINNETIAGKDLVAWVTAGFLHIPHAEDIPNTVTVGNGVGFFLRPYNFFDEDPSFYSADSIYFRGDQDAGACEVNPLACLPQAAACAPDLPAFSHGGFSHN
The experiment can be described thus: SSAO activity, hydrogen peroxide production relative to benzylamine (human). The settings on record: compound at 1 mM. The class given is biochemical. The method, then: (§1) The continuous spectrophotometric detection of SSAO-dependent H2O2 production based on a peroxidase-coupled reaction was performed as previously described by Abella et al. (2004, Diabetologia 47: 429-438) and following the procedure described by Holt et al., (1997, Anal. Biochem. 244: 384-392).
(§2) Compounds listed in Table 1 were prepared according to the methods described above, purity was determined by HPLC at 220 nm, molecular weight calculated by mass spectrometer. Human and mouse SSAO activity was determined by detecting the production of hydrogene peroxide in the presence of the different compounds present at 1 mM for human and 100 μM for mice activity measurements. Compounds in Table 2″ were similarly assayed. Values are means of percentages relative to benzylamine-related hydrogen production. Kinetic Parameters for select compounds are set forth in Table 3 (Mouse SSAO) and Table 4 (Human SSAO).

Experiment [3] addresses T2, mouse SSAO (Mus musculus, UniProt O70423).
T2 sequence (O70423 1-765): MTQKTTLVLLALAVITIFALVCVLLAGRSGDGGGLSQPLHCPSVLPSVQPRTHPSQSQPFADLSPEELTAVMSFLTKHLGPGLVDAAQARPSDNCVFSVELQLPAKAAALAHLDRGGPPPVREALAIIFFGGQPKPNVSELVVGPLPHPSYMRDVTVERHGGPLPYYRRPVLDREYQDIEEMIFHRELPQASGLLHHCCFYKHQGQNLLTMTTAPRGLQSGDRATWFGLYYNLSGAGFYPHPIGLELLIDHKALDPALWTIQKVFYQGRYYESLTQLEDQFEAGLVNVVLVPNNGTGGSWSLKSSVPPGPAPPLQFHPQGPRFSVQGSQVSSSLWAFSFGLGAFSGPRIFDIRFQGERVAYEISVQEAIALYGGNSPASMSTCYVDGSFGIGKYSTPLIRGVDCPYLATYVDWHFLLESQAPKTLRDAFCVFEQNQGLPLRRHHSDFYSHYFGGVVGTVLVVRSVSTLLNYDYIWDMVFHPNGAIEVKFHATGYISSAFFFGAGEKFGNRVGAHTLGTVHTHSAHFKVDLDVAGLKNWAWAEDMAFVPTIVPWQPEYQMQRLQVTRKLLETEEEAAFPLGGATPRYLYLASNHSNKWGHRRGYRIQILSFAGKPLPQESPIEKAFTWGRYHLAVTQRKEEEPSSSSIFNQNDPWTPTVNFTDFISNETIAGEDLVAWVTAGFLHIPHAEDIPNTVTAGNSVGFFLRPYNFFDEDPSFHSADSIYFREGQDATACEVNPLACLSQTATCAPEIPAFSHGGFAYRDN
The experiment can be described thus: SSAO activity, hydrogen peroxide production relative to benzylamine (mouse). The format is biochemical. The settings on record: compound at 100 μM. The method, then:
as §1, §2

Regarding “pentaquis(benzylammonium) decavanadate (V) dihydrate [Entry B5V10]”, the “stimulation of glucose transport in the presence of semicarbazide” value in experiment [1] (dihydrate) is recorded as “blocked in the presence of semicarbazide”; in experiment [1] (listed as pentaquis(benzylammonium) decavanadate, dihydrate) it was “this effect was inhibited”. The “stimulation of glucose transport (2-DG uptake)” value in experiment [1] is given as “pronounced stimulation on glucose transport”.
With “Tetraquis(Benzylammonium) Decavanadate (V) Dihydrate [Entry B4V10]”, the “stimulation of glucose transport in the presence of semicarbazide” value is on record as “blocked in the presence of semicarbazide” in experiment [1] (dihydrate) and “this effect was inhibited” in experiment [1] (listed as tetraquis(benzylammonium) decavanadate, Dihydrate). Further, the “stimulation of glucose transport (2-DG uptake)” value in experiment [1] is “pronounced stimulation on glucose transport”.
For the compound `COc1cc(CN)cc(OC)c1` [Entry 24, (3,5-dimethoxyphenyl)methanamine], in experiment [2], the “SSAO activity (% relative to benzylamine) Human” value was determined as 0.00%. Further, in experiment [3], the “SSAO activity (% relative to benzylamine) Mouse” value is reported as 0.75%.
The corresponding values for `NCc1ccc(C(F)(F)F)cc1` [Entry 8, (4-(trifluoromethyl)phenyl)methanamine] are 0.50% and 83.00%.
As to `COc1cccc(O)c1CN` [Entry 19, 2-(aminomethyl)-3-methoxyphenol], the “SSAO activity (% relative to benzylamine) Human” value in experiment [2] came out at 0.00%. Moreover, the “SSAO activity (% relative to benzylamine) Mouse” value in experiment [3] was found to be 0.00%.
As for `NCc1ccccc1F` [Entry 23, (2-fluorophenyl)methanamine], the “SSAO activity (% relative to benzylamine) Human” value in experiment [2] turned out to be 1.3%. Moreover, the “SSAO activity (% relative to benzylamine) Mouse” value in experiment [3] came out at 44.0%.
The corresponding values for `COc1ccc(CN)c2ccccc12` [Entry 28, (4-methoxynaphthalen-1-yl)methanamine] are 0.70% and 0.00%.
The corresponding values for `NCc1c(O)ccc2ccccc12` [Entry 29, 1-(aminomethyl)naphthalen-2-ol] are 0.00% and 0.00%.
Regarding `CC(N)c1cccc2ccccc12` (centres unmarked) [Entry 30, 1-(naphthalen-1-yl)ethanamine], in experiment [2], the “SSAO activity (% relative to benzylamine) Human” value was found to be 11.00%. The “SSAO activity (% relative to benzylamine) Mouse” value in experiment [3] worked out at 0.00%.
On the same counts, the results for `NCCc1ccc(F)cc1` [Entry 46, 2-(4-fluorophenyl)ethanamine] are 16.30% and 59.80%.
On the same counts, the results for `CC(C)(C)c1ccc(CN)cc1` [Entry 6, (4-tert-butylphenyl)methanamine] are 0.00% and 1.00%.
On the same counts, the results for `Cc1ccc(CN)cc1` [Entry 4, p-tolylmethanamine] are 0.00% and 0.00%.
With `NCc1cccc([N+](=O)[O-])c1O` [Entry 14, 2-(aminomethyl)-6-nitrophenol], the “SSAO activity (% relative to benzylamine) Human” value in experiment [2] stood at 0.11%. Moreover, the “SSAO activity (% relative to benzylamine) Mouse” value in experiment [3] is reported as 5.47%.
The corresponding values for `NCc1ccc(F)cc1` [Entry 3, (4-fluorophenyl)methanamine] are 31.70% and 77.20%.
On the same counts, the results for `NCCCCc1ccccc1` [Entry 44, 4-phenylbutan-1-amine] are 147.63% and 61.18%.
On the same counts, the results for `NCCOc1ccccc1` [Entry 43, 2-phenoxyethanamine] are 17.93% and 14.60%.
In the case of `Cc1ccc(CN)cc1F` [Entry 16, (3-fluoro-4-methylphenyl)methanamine], the “SSAO activity (% relative to benzylamine) Human” value in experiment [2] was determined as 7.07%. For the same compound, the “SSAO activity (% relative to benzylamine) Mouse” value in experiment [3] is reported as 33.49%.
On the same counts, the results for `NCc1ccc(C(=O)O)cc1` [Entry 27, 4-(aminomethyl)benzoic acid] are 0.00% and 4.06%.

The record behind these values is US20070066682A1, “Arylalkylamine vanadium (V) salts for the treatment and/or prevention of Diabetes mellitus” (priority 2005, published 2007).
